Measured values: patent publication US6525001B1, “Substituted pyrimidine and pyridine herbicides” (Mid-American Commercialization Corporation, priority 1997, dated 2003)

Legend:
Format in all cases: in vivo
Design in all cases: key: 0 is no effect; 10 is complete control
[1] = system: giant foxtail (Setaria faberii); assay: Test B pre-/postemergence
Excerpt: (§1) Seeds of bedstraw (Galium aparine), blackgrass (Alopecurus myosuroides), broadleaf signalgrass (Brachiaria decumbens), cocklebur (Xanthium strumarium), corn (Zea mays), crabgrass (Digitaria sanguinalis), giant foxtail (Setaria faberii), lambsquarters (Chenopodium album), momingglory (Ipomoea hederacea), pigweed (Amaranthus retroflexus), rape (Brassica napus), soybean (Glycine max), sugar beet (Beta vulgaris), velvetleaf (Abutilon theophrasti), wheat (Triticum aestivum), wild oat (Avena fatua) and purple nutsedge (Cyperus rotundus) tubers were planted and treated preemergence with test chemicals formulated in a non-phytotoxic solvent mixture which included a surfactant.
(§2) At the same time, these crop and weed species were also treated with postemergence applications of test chemicals formulated in the same manner. Plants ranged in height from 2 to 18 cm (1- to 4-leaf stage) for postemergence treatments. Plant species in the flood test consisted of rice (Oryza sativa), smallflower flatsedge (Cyperus difformis), duck salad (Heteranthera limosa) and bamyardgrass (Echinochloa crus-galli) grown to the 2-leaf stage for testing. Treated plants and controls were maintained in a greenhouse for twelve to sixteen days, after which all species were compared to controls and visually evaluated. Plant response ratings, summarized in Table B, are based on a scale of 0 to 10 where 0 is no effect and 10 is complete control. A dash (−) response means no test result.

[2] = system: velvetleaf (Abutilon theophrasti); assay: Test B pre-/postemergence
Excerpt: as §1, §2

[3] = system: wild oat (Avena fatua); assay: Test B pre-/postemergence
Excerpt: as §1, §2

[4] = system: sugar beet (Beta vulgaris); assay: Test B pre-/postemergence
Excerpt: as §1, §2

[5] = system: soybean (Glycine max); assay: Test B pre-/postemergence
Excerpt: as §1, §2

[6] = system: cocklebur (Xanthium strumarium); assay: Test B pre-/postemergence; conditions: Preemergence
Excerpt: as §1, §2

[7] = system: purple nutsedge (Cyperus rotundus); assay: Test B pre-/postemergence
Excerpt: as §1, §2

[8] = system: bedstraw (Galium aparine); assay: Test B pre-/postemergence
Excerpt: as §1, §2

[9] = system: broadleaf signalgrass (Brachiaria decumbens); assay: Test B pre-/postemergence
Excerpt: as §1, §2

[10] = system: corn (Zea mays); assay: Test B pre-/postemergence
Excerpt: as §1, §2

[11] = system: blackgrass (Alopecurus myosuroides); assay: Test B pre-/postemergence
Excerpt: as §1, §2

[12] = system: wheat (Triticum aestivum); assay: Test B pre-/postemergence
Excerpt: as §1, §2

[13] = system: rape (Brassica napus); assay: Test B pre-/postemergence
Excerpt: as §1, §2

[14] = system: momingglory (Ipomoea hederacea); assay: Test B pre-/postemergence
Excerpt: as §1, §2

[15] = system: crabgrass (Digitaria sanguinalis); assay: Test B pre-/postemergence
Excerpt: as §1, §2

[16] = system: pigweed (Amaranthus retroflexus); assay: Test B pre-/postemergence
Excerpt: as §1, §2

[17] = system: rice (Oryza sativa); assay: Test B flood test
Outline: (§3)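 Each value is a visual injury score relative to controls, with 10 meaning complete control and 0 no effect. Evaluation took place twelve to sixteen days after the 2-leaf-stage plants were treated and kept in the greenhouse.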

[18] = system: duck salad (Heteranthera limosa); assay: Test B flood test
Outline: as §3

[19] = system: bamyardgrass (Echinochloa crus-galli); assay: Test B flood test
Outline: as §3

[20] = system: smallflower flatsedge (Cyperus difformis); assay: Test B flood test
Outline: as §3

[21] = Rate 125 g/ha, Postemergence, flood test
[22] = Rate 250 g/ha, Postemergence (flood test species)
[23] = Rate 500 g/ha, Postemergence (flood test species)

Cc1cnc(-c2ccccc2)nc1Cn1ccc(C(F)(F)F)n1 [Compound 7]
Plant response rating, Giant foxtail ([1]; Rate 125 g/ha, Postemergence): 1 | Giant foxtail plant response rating ([1]; Rate 125 g/ha, Preemergence): 0 | Plant response rating, Giant foxtail ([1]; Rate 250 g/ha, Postemergence): 1 | Plant response rating, Giant foxtail ([1]; Rate 250 g/ha, Preemergence): 1 | Plant response rating, Giant foxtail ([1]; Rate 500 g/ha, Postemergence): 1 | Plant response rating, Giant foxtail ([1]; Rate 500 g/ha, Preemergence): 5 | Plant response rating, Velvetleaf ([2]; Rate 125 g/ha, Postemergence): 1 | Velvetleaf plant response rating ([2]; Rate 125 g/ha, Preemergence): 0 | Plant response rating, Velvetleaf ([2]; Rate 250 g/ha, Postemergence): 1 | Plant response rating, Velvetleaf ([2]; Rate 250 g/ha, Preemergence): 0 | Plant response rating, Velvetleaf ([2]; Rate 500 g/ha, Postemergence): 2 | Plant response rating, Velvetleaf ([2]; Rate 500 g/ha, Preemergence): 0 | Plant response rating, Wild oats ([3]; Rate 125 g/ha, Postemergence): 0 | Wild oats plant response rating ([3]; Rate 125 g/ha, Preemergence): 0 | Plant response rating, Wild oats ([3]; Rate 250 g/ha, Postemergence): 0 | Plant response rating, Wild oats ([3]; Rate 250 g/ha, Preemergence): 0 | Plant response rating, Wild oats ([3]; Rate 500 g/ha, Postemergence): 0 | Plant response rating, Wild oats ([3]; Rate 500 g/ha, Preemergence): 0 | Plant response rating, Sugarbeets ([4]; Rate 125 g/ha, Postemergence): 3 | Sugarbeets plant response rating ([4]; Rate 125 g/ha, Preemergence): 0 | Plant response rating, Sugarbeets ([4]; Rate 250 g/ha, Postemergence): 8 | Plant response rating, Sugarbeets ([4]; Rate 250 g/ha, Preemergence): 0 | Plant response rating, Sugarbeets ([4]; Rate 500 g/ha, Postemergence): 8 | Plant response rating, Sugarbeets ([4]; Rate 500 g/ha, Preemergence): 1 | Plant response rating, Soybean ([5]; Rate 125 g/ha, Postemergence): 3 | Soybean plant response rating ([5]; Rate 125 g/ha, Preemergence): 0 | Plant response rating, Soybean ([5]; Rate 250 g/ha, Postemergence): 3 | Plant response rating, Soybean ([5]; Rate 250 g/ha, Preemergence): 0 | Plant response rating, Soybean ([5]; Rate 500 g/ha, Postemergence): 5 | Plant response rating, Soybean ([5]; Rate 500 g/ha, Preemergence): 0 | Cocklebur plant response rating ([6]; Rate 125 g/ha): 0 | Plant response rating, Cocklebur ([6]; Rate 250 g/ha): 0 | Plant response rating, Cocklebur ([6]; Rate 500 g/ha): 0 | Plant response rating, Nutsedge ([7]; Rate 125 g/ha, Postemergence): 0 | Nutsedge plant response rating ([7]; Rate 125 g/ha, Preemergence): 0 | Plant response rating, Nutsedge ([7]; Rate 250 g/ha, Postemergence): 0 | Plant response rating, Nutsedge ([7]; Rate 250 g/ha, Preemergence): 0 | Plant response rating, Nutsedge ([7]; Rate 500 g/ha, Postemergence): 0 | Plant response rating, Nutsedge ([7]; Rate 500 g/ha, Preemergence): 0 | Plant response rating, Bedstraw ([8]; Rate 125 g/ha, Postemergence): 3 | Bedstraw plant response rating ([8]; Rate 125 g/ha, Preemergence): 0 | Plant response rating, Bedstraw ([8]; Rate 250 g/ha, Postemergence): 3 | Plant response rating, Bedstraw ([8]; Rate 250 g/ha, Preemergence): 0 | Plant response rating, Bedstraw ([8]; Rate 500 g/ha, Postemergence): 3 | Plant response rating, Bedstraw ([8]; Rate 500 g/ha, Preemergence): 0 | Plant response rating, B. signalgrass ([9]; Rate 125 g/ha, Postemergence): 1 | B. signalgrass plant response rating ([9]; Rate 125 g/ha, Preemergence): 0 | Plant response rating, B. signalgrass ([9]; Rate 250 g/ha, Postemergence): 1 | Plant response rating, B. signalgrass ([9]; Rate 250 g/ha, Preemergence): 0 | Plant response rating, B. signalgrass ([9]; Rate 500 g/ha, Postemergence): 1 | Plant response rating, B. signalgrass ([9]; Rate 500 g/ha, Preemergence): 0 | Plant response rating, Corn ([10]; Rate 125 g/ha, Postemergence): 1 | Corn plant response rating ([10]; Rate 125 g/ha, Preemergence): 0 | Plant response rating, Corn ([10]; Rate 250 g/ha, Postemergence): 2 | Plant response rating, Corn ([10]; Rate 250 g/ha, Preemergence): 0 | Plant response rating, Corn ([10]; Rate 500 g/ha, Postemergence): 2 | Plant response rating, Corn ([10]; Rate 500 g/ha, Preemergence): 0 | Plant response rating, Blackgrass ([11]; Rate 125 g/ha, Postemergence): 0 | Blackgrass plant response rating ([11]; Rate 125 g/ha, Preemergence): 0 | Plant response rating, Blackgrass ([11]; Rate 250 g/ha, Preemergence): 0 | Plant response rating, Blackgrass ([11]; Rate 500 g/ha, Postemergence): 1 | Plant response rating, Blackgrass ([11]; Rate 500 g/ha, Preemergence): 0 | Plant response rating, Wheat ([12]; Rate 125 g/ha, Postemergence): 0 | Wheat plant response rating ([12]; Rate 125 g/ha, Preemergence): 0 | Plant response rating, Wheat ([12]; Rate 250 g/ha, Postemergence): 0 | Plant response rating, Wheat ([12]; Rate 250 g/ha, Preemergence): 0 | Plant response rating, Wheat ([12]; Rate 500 g/ha, Postemergence): 0 | Plant response rating, Wheat ([12]; Rate 500 g/ha, Preemergence): 0 | Plant response rating, Rape ([13]; Rate 125 g/ha, Postemergence): 5 | Rape plant response rating ([13]; Rate 125 g/ha, Preemergence): 0 | Plant response rating, Rape ([13]; Rate 250 g/ha, Postemergence): 6 | Plant response rating, Rape ([13]; Rate 250 g/ha, Preemergence): 0 | Plant response rating, Rape ([13]; Rate 500 g/ha, Postemergence): 7 | Plant response rating, Rape ([13]; Rate 500 g/ha, Preemergence): 0 | Plant response rating, Morningglory ([14]; Rate 125 g/ha, Postemergence): 1 | Morningglory plant response rating ([14]; Rate 125 g/ha, Preemergence): 0 | Plant response rating, Morningglory ([14]; Rate 250 g/ha, Postemergence): 2 | Plant response rating, Morningglory ([14]; Rate 250 g/ha, Preemergence): 0 | Plant response rating, Morningglory ([14]; Rate 500 g/ha, Postemergence): 5 | Plant response rating, Morningglory ([14]; Rate 500 g/ha, Preemergence): 0 | Plant response rating, Crabgrass ([15]; Rate 125 g/ha, Postemergence): 0 | Crabgrass plant response rating ([15]; Rate 125 g/ha, Preemergence): 0 | Plant response rating, Crabgrass ([15]; Rate 250 g/ha, Postemergence): 2 | Plant response rating, Crabgrass ([15]; Rate 250 g/ha, Preemergence): 1 | Plant response rating, Crabgrass ([15]; Rate 500 g/ha, Postemergence): 2 | Plant response rating, Crabgrass ([15]; Rate 500 g/ha, Preemergence): 2 | Plant response rating, Redroot pigweed ([16]; Rate 125 g/ha, Postemergence): 3 | Redroot pigweed plant response rating ([16]; Rate 125 g/ha, Preemergence): 0 | Plant response rating, Redroot pigweed ([16]; Rate 250 g/ha, Postemergence): 7 | Plant response rating, Redroot pigweed ([16]; Rate 250 g/ha, Preemergence): 2 | Plant response rating, Redroot pigweed ([16]; Rate 500 g/ha, Postemergence): 7 | Plant response rating, Redroot pigweed ([16]; Rate 500 g/ha, Preemergence): 2 | Plant response rating, Rice [17, 21]: 0 | Plant response rating, Rice [17, 22]: 0 | Plant response rating, Rice [17, 23]: 0 | Plant response rating, Ducksalad [18, 21]: 0 | Plant response rating, Ducksalad [18, 22]: 0 | Plant response rating, Ducksalad [18, 23]: 2 | Plant response rating, Barnyardgrass [19, 21]: 1 | Plant response rating, Barnyardgrass [19, 22]: 1 | Plant response rating, Barnyardgrass [19, 23]: 2 | Plant response rating, S. Flatsedge [20, 21]: 1 | Plant response rating, S. Flatsedge [20, 22]: 2 | Plant response rating, S. Flatsedge [20, 23]: 4
